In PMC8795197, “Safety and activity of WX-0593 (Iruplinalkib) in patients with ALK- or ROS1-rearranged advanced non-small cell lung cancer: a phase 1 dose-escalation and dose-expansion trial” (Signal Transduction and Targeted Therapy, 2022):
Read-outs that look alike come from different tables or passages of the source. One block for each compound: values may come before it.

Experiments:
[1] = tested on: LU-01-0319R NSCLC PDX; test: PDX model resistant to crizotinib; assay type: in vivo; conditions: WX-0593 2.5, 5, 10 mg/kg; ceritinib 10/20 mg/kg; brigatinib 10 mg/kg
[2] = tested on: Ba/F3 SLC34A2-ROS1-G2032R; test: Growth of transfected Ba/F3 cells (CellTiter-Glo, 3 days); assay type: cell-based; conditions: Mus musculus, BaF3
Protocol: (§1) Harvest cells during the logarithmic growth period and count cells using blood counting chamber. Adjust cell concentration with culture medium. Add 90µl cell suspensions to two 96-well plates to the final cell density as described before. Incubate the plate overnight in humidified incubator at 37℃ with 5% CO2. Dispense 10µl drug solution (10×) to each well (triplicate for each concentration), and the DMSO final concentration in culture medium is 0.1% [v/v]. Culture the plates for 3 days.On Day 3, Read luminescent using Multi Label Reader. The software of GraphPad Prism was used to calculate IC50. The graphical curves were fitted using a nonlinear regression model with a sigmoidal dose response.

[3] = tested on: Ba/F3 CD74-ROS1-D2033N; test: as above; assay type: cell-based; conditions: Mus musculus, BaF3
Protocol: as §1

[4] = tested on: Ba/F3 SLC34A2-ROS1; test: as above; assay type: cell-based; conditions: Mus musculus, BaF3
Protocol: as §1

[5] = tested on: Ba/F3 SLC34A2-ROS1-L2026M; test: as above; assay type: cell-based; conditions: Mus musculus, BaF3
Protocol: as §1

[6] = tested on: Ba/F3 CD74-ROS1-L1951R; test: as above; assay type: cell-based; conditions: Mus musculus, BaF3
Protocol: as §1

[7] = tested on: NSCLC patients with ALK or ROS1 rearrangement; conditions: cited from earlier work
[8] = tested on: Ba/F3 ALK-G1202R; test: Growth of transfected Ba/F3 cells (CellTiter-Glo, 3 days); assay type: cell-based; conditions: Mus musculus, BaF3
Protocol: as §1, with “days. On” for “days.On”

[9] = tested on: Ba/F3 ALK-L1152R; test: as above; assay type: cell-based; conditions: Mus musculus, BaF3
Protocol: as §1, with “days. On” for “days.On”

[10] = tested on: Ba/F3 ALK-C1156Y; test: as above; assay type: cell-based; conditions: Mus musculus, BaF3
Protocol: as §1, with “days. On” for “days.On”

[11] = tested on: Ba/F3 ALK-I1171N; test: as above; assay type: cell-based; conditions: Mus musculus, BaF3
Protocol: as §1, with “days. On” for “days.On”

[12] = tested on: Ba/F3 ALK-L1152P; test: as above; assay type: cell-based; conditions: Mus musculus, BaF3
Protocol: as §1, with “days. On” for “days.On”

[13] = tested on: Ba/F3 ALK-I1171S; test: as above; assay type: cell-based
Protocol: as §1, with “days. On” for “days.On”

[14] = tested on: Ba/F3 ALK-L1196M; test: as above; assay type: cell-based; conditions: Mus musculus, BaF3
Protocol: as §1, with “days. On” for “days.On”

[15] = tested on: Ba/F3 ALK-I1171T; test: as above; assay type: cell-based; conditions: Mus musculus, BaF3
Protocol: as §1, with “days. On” for “days.On”

[16] = tested on: Ba/F3 ALK-WT; test: as above; assay type: cell-based; conditions: Mus musculus, BaF3
Protocol: as §1, with “days. On” for “days.On”

[17] = tested on: Ba/F3 ALK-F1174V; test: as above; assay type: cell-based; conditions: Mus musculus, BaF3
Protocol: as §1, with “days. On” for “days.On”

[18] = tested on: Ba/F3 ALK-G1202del; test: as above; assay type: cell-based; conditions: Mus musculus, BaF3
Protocol: as §1, with “days. On” for “days.On”

[19] = tested on: Ba/F3 ALK-V1180L; test: as above; assay type: cell-based; conditions: Mus musculus, BaF3
Protocol: as §1, with “days. On” for “days.On”

[20] = tested on: Ba/F3 ALK-G1269A; test: as above; assay type: cell-based; conditions: Mus musculus, BaF3
Protocol: as §1, with “days. On” for “days.On”

[21] = tested on: Ba/F3 ALK-F1174L; test: as above; assay type: cell-based; conditions: Mus musculus, BaF3
Protocol: as §1, with “days. On” for “days.On”

[22] = tested on: Ba/F3 ALK-T1151Tins; test: as above; assay type: cell-based; conditions: Mus musculus, BaF3
Protocol: as §1, with “days. On” for “days.On”

[23] = tested on: Ba/F3 ALK-F1174C; test: as above; assay type: cell-based
Protocol: as §1, with “days. On” for “days.On”

[24] = tested on: Ba/F3 CD74-ROS1-S1986F; test: as above; assay type: cell-based; conditions: Mus musculus, BaF3
Protocol: as §1

[25] = tested on: Ba/F3 CD74-ROS1-S1986Y; test: as above; assay type: cell-based; conditions: Mus musculus, BaF3
Protocol: as §1

[26] = tested on: patients treated with ALK TKIs; conditions: cited from earlier work

IC50 [2]: […] | IC50 [3]: […] | IC50 [4]: 8 nM | IC50 [5]: 162 nM | IC50 [6]: […]
SMILES: C[C@@H](Oc1cc(-c2cnn(C3CCNCC3)c2)cnc1N)c1c(Cl)ccc(F)c1Cl [Crizotinib]
anti-tumor effect [1]: resistant

IC50 ([8]; ALK-G1202R, read-out: IC50): 409 nM | IC50 ([9]; ALK-L1152R, read-out: IC50): 71.4 nM | IC50 ([10]; ALK-C1156Y, read-out: IC50): 17 nM | IC50 ([11]; ALK-I1171N, read-out: IC50): 18.4 nM | IC50 ([12]; ALK-L1152P, read-out: IC50): 25.7 nM | IC50 ([13]; Mus musculus, BaF3, ALK-I1171S, first listing (r12), read-out: IC50): 39 nM | IC50 ([13]; Mus musculus, BaF3, ALK-I1171S, second listing (r19), read-out: IC50): 41.5 nM | IC50 ([14]; ALK-L1196M, read-out: IC50): 98 nM | IC50 ([15]; ALK-I1171T, read-out: IC50): 28 nM | IC50 ([16]; ALK-WT, read-out: IC50): 14 nM | IC50 ([17]; ALK-F1174V, read-out: IC50): 54.5 nM | IC50 ([18]; ALK-G1202del, read-out: IC50): 932 nM | IC50 ([19]; ALK-V1180L, read-out: IC50): 16.6 nM | IC50 ([20]; ALK-G1269A, read-out: IC50): 212 nM | IC50 ([21]; ALK-F1174L, read-out: IC50): 29 nM | IC50 ([22]; ALK-T1151Tins, read-out: IC50): 42 nM | IC50 ([23]; Mus musculus, BaF3, ALK-F1174C, first listing (r10), read-out: IC50): 62 nM | IC50 ([23]; Mus musculus, BaF3, ALK-F1174C, second listing (r15), read-out: IC50): 62.2 nM | IC50 [24]: 192 nM | IC50 [2]: 1640 nM | IC50 [3]: 195 nM | IC50 [4]: 49 nM | IC50 [25]: 189 nM | IC50 [5]: 278 nM | IC50 [6]: 970 nM
SMILES: C[C@@H]1CN(C(=O)c2ccc(NC(=O)c3cc(O[C@H](C)c4c(Cl)ccc(F)c4Cl)c(N)nn3)cc2)C[C@H](C)N1 [Ensartinib]
ORR ([7]; ALK-rearranged patients): 60% | rash, % of patients [26]: 56%

SMILES: C[C@H]1Oc2cc(cnc2N)-c2c(nn(C)c2C#N)CN(C)C(=O)c2ccc(F)cc21 [Lorlatinib]
ORR ([7]; ALK TKI-naive patients with ROS1 rearrangement): 62% | ORR ([7]; ROS1 rearrangement, crizotinib as the only TKI): 35% | IC50 [8]: 26 nM | IC50 [9]: 17.4 nM | IC50 [10]: 4 nM | IC50 [11]: 41.1 nM | IC50 [12]: 4.6 nM | IC50 [13]: 52.8 nM | IC50 ([13]; Mus musculus, BaF3): 33 nM | IC50 [14]: 54 nM | IC50 [15]: 19 nM | IC50 [16]: 4 nM | IC50 [17]: 16.1 nM | IC50 [18]: 215 nM | IC50 [19]: 5.2 nM | IC50 [20]: 35 nM | IC50 [21]: 4 nM | IC50 [22]: 7 nM | IC50 [23]: 15.9 nM | IC50 ([23]; Mus musculus, BaF3): 11 nM | IC50 [24]: 1.1 nM | IC50 [2]: 197 nM | IC50 [3]: 1.7 nM | IC50 [4]: < 1 nM | IC50 [25]: 1.5 nM | IC50 [5]: < 1 nM | IC50 [6]: 5.1 nM
